Results reported in patent publication US20230002327A1, “SMALL-MOLECULE REGULATOR OF TLR8” (TSINGHUA UNIVERSITY, priority 2019, published 2023).

How the values were obtained:
[1] = tested on: R848-induced signaling pathway in human peripheral blood mononuclear cells; experiment: ELISA of TNF-α in R848-treated human peripheral blood mononuclear cells; type: cell-based; details: human peripheral blood mononuclear cells (FIG. 8)
Method: After 48 hours, suspending cells would adhere onto the surface of the 12-well plate, non-adhered cells and the medium were aspirated, and cells were washed with sterile […] buffer (3×1 mL). RPMI medium was added (1 mL/well), and R848 (1 μg/mL) and various concentrations of Compound 24 or Compound 10 (as a negative control) were further added to treat cells. Or, the same amount of peripheral blood mononuclear cells derived from healthy human were used instead of THP-1 cells for subsequent experiments.
After 24 hours, the supernatant of the medium was collected and stored in a freezer at −80° C. Cells were washed with PBS (3×1 mL), the 12-well plate was placed on ice, and then 400 μL of lysis buffer (containing protease inhibitor) was added to each well, during which the cells were pipetted every five minutes. After 20 minutes, the mixture was transferred to the corresponding 1.5-mL tube and centrifuged at 13.2K rpm and 4° C. for 20 minutes. 350 μL of the supernatant was collected into a new centrifuge tube and frozen at −80° C.
Cytokines interleukin-1β(IL-1β), interleukin-6 (IL-6) and tumor necrosis factor (TNF-α) were quantified by enzyme-linked immunosorbent assay (ELISA) according to the instructions of the kit provided by the manufacturer.

[2] = tested on: peripheral blood mononuclear cells of patients suffering from rheumatoid arthritis; experiment: TNF-α in PBMC of rheumatoid arthritis patients; type: cell-based, human; details: PBMC derived from rheumatoid arthritis patients (FIG. 9)
Method: Approximately 8 mL of blood was collected from untreated rheumatoid arthritis patients.
Peripheral blood mononuclear cells (PBMCs) were isolated from the whole blood derived from 6 rheumatoid arthritis patients using the lymphocyte separation medium, and the cells were seeded in a 96-well round-bottom plate at a density of 1×10^6 cells/mL immediately after the isolation (cultured in RPMI 1640 (0.25 mL/well)).
Afterwards, cells were treated with 0, 10, 20, 40 and 80 μM Compound 24, Compound 10 was used as a negative control, and cells were placed in a cell incubator (37° C., 5% CO2) for incubation.
After 24 hours, the resultant was centrifuged at 4,000 rpm/minute for 10 minutes, and then the supernatant was collected, frozen to −80° C. and used for the determination of TNF-α. Quantification was conducted using a human TNF ELISA Kit.

## OCCCc1nnc(S)n1-c1ccc(Cl)cc1Cl [Compound 10, 3-(4-(2,4-dichlorophenyl)-5-mercapto-4H-1,2,4-triazole-3-yl)propan-1-ol]
[1]
  inhibitory effect on inflammatory factor TNF-α: did not exert inhibitory effect
[2]
  inhibitory effect on inflammatory factor TNF-α: did not show such effect
